Experimental data: the NIST ThermoML archive (doi:10.1021/je100848r)

Legend:
[1] = xn = mol fraction of the nth substance listed; conditions: 101 kPa, Liquid
[2] = 101 kPa, Liquid

CO [methanol] + CCC(=O)[O-].OCC[NH2+]CCO
[1], x2 = 0
Conditions | mass density [kg/m3] | viscosity [mPa·s]
293.15 K | 791.2 | 0.6075
303.15 K | 781.8 | 0.5535
313.15 K | 772.3 | 0.501
323.15 K | 765.1 | 0.4601

CCCO [propan-1-ol]
[2]
Conditions | mass density [kg/m3] | viscosity [mPa·s]
293.15 K | 803.2 | 2.141
303.15 K | 795.5 | 1.788
313.15 K | 787.6 | 1.391
323.15 K | 778.7 | 1.098

CCC(=O)[O-].OCC[NH2+]CCO [bis(2-hydroxyethyl)ammonium propanoate] + CCO
[1]
Conditions | mass density, 293.15 K [kg/m3] | mass density, 303.15 K [kg/m3] | mass density, 313.15 K [kg/m3] | mass density, 323.15 K [kg/m3] | viscosity, 293.15 K [mPa·s] | viscosity, 303.15 K [mPa·s] | viscosity, 313.15 K [mPa·s] | viscosity, 323.15 K [mPa·s]
x1 = 0.0536 | 842.7 | 834.4 | 826.6 | 818.5 | 28.36 | 14.2 | 5.271 | 3.309
x1 = 0.1087 | 887.2 | 879.2 | 871.7 | 864.2 | 55.19 | 21.36 | 9.602 | 5.974
x1 = 0.2052 | 947 | 939.4 | 932.2 | 925.5 | 105.81 | 41.43 | 18.6 | 11.54
x1 = 0.3168 | 997.5 | 990.1 | 983 | 977.1 | 167.85 | 68.6 | 30.49 | 18.98
x1 = 0.4238 | 1034.5 | 1027.3 | 1020.2 | 1014.8 | 231.31 | 95.16 | 43.46 | 27.2
x1 = 0.5084 | 1058.3 | 1051.2 | 1044.2 | 1039.1 | 284.44 | 116.45 | 54.87 | 34.45
x1 = 0.5946 | 1078.8 | 1071.8 | 1064.9 | 1060 | 343.18 | 140.21 | 68.08 | 42.81
x1 = 0.6965 | 1099.1 | 1092.3 | 1085.4 | 1080.8 | 428.04 | 177.51 | 88.08 | 55.22
x1 = 0.804 | 1116.8 | 1110 | 1103.1 | 1098.8 | 531.61 | 226.45 | 112.51 | 70.07
x1 = 0.8895 | 1128.8 | 1122 | 1115.1 | 1111 | 626.32 | 271.72 | 133.71 | 82.61
x1 = 0.9458 | 1136 | 1129.3 | 1122.4 | 1118.3 | 686.37 | 298.35 | 146.49 | 90.38
x1 = 1 | 1142.7 | 1136.1 | 1129.2 | 1125.2 | 740.28 | 322.17 | 157.97 | 96.54
